Measurements published in patent US20060217308A1, “Compositions for the treatment of tumor pathologies, comprising internalin B (ln1B) of Listeria monocytogene protein or a fragment thereof” (priority 2005, published 2006).

Columns and labels:
Met [1] = test: Effect of proteasome and lysosome inhibitors on In1B-dependent degradation of Met; format: cell-based, human; settings: HeLa cells pre-treated with inhibitor before addition of In1B; anti-Met immunoblot
Protocol: (A) Hela cells were treated (+) with […] epoximycin, […] clasto-lactacystin-β-lactone (lactone), 20 mM ammonium chloride, or 5 μM bafilomycin A1 (Baf-A1) for 90 minutes before addition of In1B. Cell extracts were loaded in a SDS-PAGE gel followed by immunoblot with anti-Met antibody. […] (B) Surface exposed proteins of Hela cells were biotinylated (Biot +) before addition of In1B. In1B was added for two minutes to allow internalization of Met, then cells were washed and biotin was removed (see methods and text) from the surface. Samples were precipitated with neutravidin agarose and blotted against Met.
Mono-ubiquitination is the signal that induces endocytosis of RTKs after ligand binding and usually drives cargo proteins to lysosomal degradation (6, 17, 34). To study whether In1B-dependent degradation of Met is a proteasomal or a lysosomal event, HeLa cells were treated with clasto-p-lactacystin lactone or epoximycin, two inhibitors of proteasome degradation, and ammonium chloride or bafilomycin A1, two inhibitors of lysosome degradation, […] before the addition of In1B. Cellular extracts were then immunoblotted using anti Met antibodies (FIG. 4).

[2] = biological target: Met (hepatocyte growth factor receptor), endogenous in human HeLa cells (human) (UniProt P08581); test: cell-based or functional assay
Chain of Met (hepatocyte growth factor receptor), endogenous in human HeLa cells (human) (P08581 25-1390): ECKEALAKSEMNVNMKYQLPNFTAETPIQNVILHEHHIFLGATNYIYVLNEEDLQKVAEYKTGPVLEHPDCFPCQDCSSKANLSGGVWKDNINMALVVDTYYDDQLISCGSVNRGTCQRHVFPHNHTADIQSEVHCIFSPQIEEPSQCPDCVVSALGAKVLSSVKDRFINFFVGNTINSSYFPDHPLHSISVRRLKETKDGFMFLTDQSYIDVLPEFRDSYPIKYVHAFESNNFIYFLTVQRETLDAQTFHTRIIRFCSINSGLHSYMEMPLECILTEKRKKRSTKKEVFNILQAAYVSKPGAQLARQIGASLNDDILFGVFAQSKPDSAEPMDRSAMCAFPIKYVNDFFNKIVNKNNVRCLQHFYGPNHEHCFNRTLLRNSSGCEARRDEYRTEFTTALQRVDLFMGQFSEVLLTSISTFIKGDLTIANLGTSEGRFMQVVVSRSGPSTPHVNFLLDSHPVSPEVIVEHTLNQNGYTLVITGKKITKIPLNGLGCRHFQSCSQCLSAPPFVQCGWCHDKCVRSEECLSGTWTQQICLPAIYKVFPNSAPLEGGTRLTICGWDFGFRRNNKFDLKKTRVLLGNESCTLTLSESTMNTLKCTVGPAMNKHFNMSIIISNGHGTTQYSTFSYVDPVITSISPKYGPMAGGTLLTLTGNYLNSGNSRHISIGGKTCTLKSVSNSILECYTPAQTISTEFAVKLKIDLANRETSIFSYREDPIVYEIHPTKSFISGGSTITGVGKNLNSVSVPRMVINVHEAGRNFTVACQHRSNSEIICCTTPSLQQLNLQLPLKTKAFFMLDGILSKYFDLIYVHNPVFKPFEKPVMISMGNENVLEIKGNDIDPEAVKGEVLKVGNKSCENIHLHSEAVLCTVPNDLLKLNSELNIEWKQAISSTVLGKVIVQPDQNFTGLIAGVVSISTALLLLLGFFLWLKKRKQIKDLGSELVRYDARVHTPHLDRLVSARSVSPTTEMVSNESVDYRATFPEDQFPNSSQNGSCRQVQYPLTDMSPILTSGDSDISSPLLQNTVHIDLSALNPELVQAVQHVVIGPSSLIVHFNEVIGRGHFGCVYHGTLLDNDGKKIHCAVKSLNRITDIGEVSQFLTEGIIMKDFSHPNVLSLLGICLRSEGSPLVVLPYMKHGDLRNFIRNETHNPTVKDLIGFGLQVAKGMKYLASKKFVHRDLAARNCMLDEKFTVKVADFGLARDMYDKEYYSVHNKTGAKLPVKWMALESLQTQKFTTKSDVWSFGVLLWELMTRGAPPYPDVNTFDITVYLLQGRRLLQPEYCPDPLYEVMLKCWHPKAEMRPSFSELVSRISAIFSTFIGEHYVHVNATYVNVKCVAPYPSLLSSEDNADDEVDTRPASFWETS

[3] = test system: poly-ubiquitinated proteins; test: FK1 functionality test: poly-ubiquitin immunoblot of HeLa cells treated with proteasome inhibitors; format: cell-based, human; settings: 60 minutes treatment, versus non-treated
Protocol: (A) In1B was added (+) to HeLa cells. Lysates were immunoprecipitated using C12 rabbit polyclonal anti-Met antibody and blotted against Met (DL21 mAb). The same membrane was stripped and blotted against ubiquitin using FK1, a mAb that recognizes poly-ubiquitinated proteins, or P4D1, a mAb that recognizes both poly- and mono-ubiquitinated proteins. (B) Total cell extracts from Hela cells treated with […] epoximycin (lane 2) or […] clasto-lactacystin-β-lactone (lane 3) for 60 minutes, or non-treated cells (lane 1) were blotted against poly-ubiquitin (FK1) or actin. (C) ubiquitin ladder was blotted with FK1 or P4D1. The number of ubiquitin modules is indicated on the right. The molecular weight of protein markers is shown in the left of the panels, in kDa. In D and E, Hela Cells were transfected with siRNA to knock down Cbl expression (RNAi), or with RNA control (Control). (D) Cellular Cbl and actin were detected by immunoblotting. […]
The rapid degradation of Met after In B contact is different from the HGF-dependent degradation, which has been reported to take two hours (19-21), indicating differences in the biochemistry of the process. […] Samples from HeLa cells treated with In1B (5 nM) were immunoprecipitated using an anti-Met antibody, and then Met-immunoprecipitates were analyzed with an anti Met mAb (FIG. 3A1), FK1 (FIG. 3A2) or P4D1 (FIG. 3A3). […]

Met [4] = biological target: Met (Homo sapiens, UniProt P08581); settings: comparison with In1B; cited from earlier work
Chain of Met (Homo sapiens, UniProt P08581) (P08581 25-1390): as above

Met [5] = test: Effect of cycloheximide on In1B-dependent degradation and de-novo synthesis of Met; format: cell-based, human; settings: HeLa cells pre-treated 90 minutes before In1B
Protocol: FIG. 2 depicts the degradation and de-novo synthesis of Met. (A) HeLa cells were treated at the indicated times with 5 nM In1B and cellular extracts were blotted against Met. (B) Cells were treated as in A, but blotted at the same time with anti-Met antibody and Streptavidin. Stars indicate nonspecific bands recognized by streptavidin and the square indicates Met. (C) The experiment was performed as in A, but cells were pre-treated with […] of cycloheximide for 90 minutes before addition of In1B. (D) This experiment was performed as in A, but In1B was removed three minutes after it was added. Actin is shown as the loading control in A, C and D. The molecular mass of the markers is indicated in kDa.
In order to determine whether de-novo synthesis of Met occurred after In1B dependent-degradation, HeLa cells were pre-treated with cycloheximide, which inhibits protein synthesis, for 90 minutes before exposure to In1B.

Cl.N [ammonium chloride]
effect of inhibitor on In1B-dependent degradation of Met (Met [1]): significantly protected Met from degradation

In1B (internalin B) of Listeria monocytogenes, purified soluble protein (ligand)
Met phosphorylation (blot against phospho-tyrosine) [2]: 2 min | kinetics of In1B-dependent ubiquitination of Met [2]: 2 min | minimal amount of In1B necessary to trigger Met ubiquitination [2]: 1.75 nM

CC[C@H](C)[C@H](NC(=O)[C@H]([C@@H](C)CC)N(C)C(C)=O)C(=O)N[C@H](C(=O)N[C@@H](CC(C)C)C(=O)[C@@]1(C)CO1)[C@@H](C)O [epoximycin]
effect of inhibitor on In1B-dependent degradation of Met (Met [1]): did not inhibit | poly-ubiquitin (FK1) signal in cells treated with proteasome inhibitor [3]: stronger signals

HGF: Met ligand (hepatocyte growth factor)
time needed for a similar rate of Met degradation after activation with HGF (Met [4]): two to five and two

C[C@@H]1C[C@@H]([C@H](O)CC2CC(=O)NC(=O)C2)C(=O)[C@@H](C)C1 [cycloheximide]
effect of cycloheximide on In1B-dependent degradation of Met (Met [5]): did not prevent | effect of cycloheximide on de-novo synthesis of Met after In1B (Met [5]): strongly hampered

CC(C)[C@H](O)[C@@]12NC(=O)[C@H](C)[C@@H]1OC2=O [clasto-lactacystin-β-lactone]
effect of inhibitor on In1B-dependent degradation of Met (Met [1]): did not inhibit | poly-ubiquitin (FK1) signal in cells treated with proteasome inhibitor [3]: stronger signals

CO/C1=C\C(C)=C\[C@@H](C)[C@@H](O)[C@@H](C)C/C(C)=C/C=C/[C@H](OC)[C@@H]([C@@H](C)[C@@H](O)[C@H](C)[C@@]2(O)C[C@@H](O)[C@H](C)[C@@H](C(C)C)O2)OC1=O [bafilomycin A1]
effect of inhibitor on In1B-dependent degradation of Met (Met [1]): significantly protected Met from degradation
